Patent US7932255B2, “2-aminocarbonyl substituted piperazine or diaza-cyclic compounds as apoptosis protein inhibitors (lap) modulators” (Novartis AG, priority 2006, dated 2011)

Molecular target: T1, XIAP (Homo sapiens, UniProt P98170)
T1 construct: GST
Assay: Disruption of the Smac peptide-(XIAP)BIR3 protein-protein interaction (Tables 2 and 3)
Type: binding
Conditions: Series A compounds, Table 2; read-out: XIAP IC50
Protocol: IC50 values for Series A compounds for XIAP. An assay capable of measuring disruption of the Smac peptide-(XIAP)BIR3 protein-protein interaction is established in the art as described in Example 2. In this assay IAP Inhibitor compounds compete with an immobilized Smac peptide for occupancy of the BIR3 binding pocket of XIAP. The rationale for this strategy results from the mutually exclusive nature of either Caspase 9 or Smac binding to the BIR3 pocket.
Assays are performed and IC50 values are calculated as follows: […]
IC50 values are calculated by logarithmic regression analysis of the percentage inhibition of each compound at 4 concentrations (usually 3- or 10-fold dilution series starting at 10 μM). In each experiment, the actual inhibition by reference compound is used for normalization of IC50 values to the basis of an average value of the reference inhibitor: Normalized IC50=measured IC50 average ref. IC50/measured ref. IC50
Activity determinations of compounds herein using the testing method described herein and as are well known in the art, are used with the following test compounds of formula (I). […] “Activity” as used herein is defined as having IC50 values for IAP target inhibition of less than 10 μM. Specifically, in the table:
IC50 values for Series B compounds are provided for XIAP. Assays are performed as described above using methods well known in the art.

T1 sequence (P98170 248-358 limits assumed, species assumed): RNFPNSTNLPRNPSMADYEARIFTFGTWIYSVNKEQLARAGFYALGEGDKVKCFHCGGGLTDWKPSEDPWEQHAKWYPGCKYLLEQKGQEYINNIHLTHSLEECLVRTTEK

Row | Structure (SMILES) | IC50
1 | C[C@@H](C(=O)N[C@H](C(=O)N1CCN(Cc2ccccc2)C[C@H]1C(=O)N[C@@H]1CCCc2ccccc21)C1CCCCC1)N(C)C(=O)OC(C)(C)C [Compound 58, [(S)-1-((S)-2-{(S)-4-Benzyl-2-[(R)-(1,2,3,4-tetrahydro-naphthalen-1-yl)carbamoyl]-piperazin-1-yl}-1-cyclohexyl-2-oxo-ethylcarbamoyl)-ethyl]-methyl-carbamic acid tert-butyl ester] | > 10 µM
2 | CN[C@@H](C)C(=O)N[C@H](C(=O)N1CCN(Cc2ccccc2)C[C@H]1C(=O)NC1CCCc2ccccc21)C1CCCCC1 (stereo partly drawn) [Compound 55, (S)-4-Benzyl-1-[(S)-2-cyclohexyl-2-((S)-2-methylamino-propionylamino)-acetyl]-piperazine-2-carboxylic acid (1,2,3,4-tetrahydro-naphthalen-1-yl)-amide] | < 10 µM
3 | CN[C@@H](C)C(=O)N[C@H](C(=O)N1CCN(C(=O)NC2CCCC2)C[C@H]1C(=O)NC1CCCc2ccccc21)C(C)C (stereo partly drawn) [Compound 28, (S)-4-[(S)-3-Methyl-2-((S)-2-methylamino-propionylamino)-butyryl]-piperazine-1,3-dicarboxylic acid 1-cyclopentylamide 3-[(1,2,3,4-tetrahydro-naphthalen-1-yl)-amide]] | < 10 µM

Continued, values first:

Row | IC50 | Structure (SMILES)
4 | < 10 µM | CN[C@@H](C)C(=O)N[C@H](C(=O)N1CCN(CCC(C)C)C[C@H]1C(=O)NC1CCCc2ccccc21)C(C)C (stereo partly drawn) [Compound 24, (S)-4-(3-Methyl-butyl)-1-[(S)-3-methyl-2-((S)-2-methylamino-propionylamino)-butyryl]-piperazine-2-carboxylic acid (1,2,3,4-tetrahydro-naphthalen-1-yl)-amide]
5 | < 10 µM | CN[C@@H](C)C(=O)N[C@H](C(=O)N1CCN(C(=O)CCOC)C[C@H]1C(=O)NC1CCCc2ccccc21)C(C)C (stereo partly drawn) [Compound 18, (S)-4-(3-Methoxy-propionyl)-1-[(S)-3-methyl-2-((S)-2-methylamino-propionylamino)-butyryl]-piperazine-2-carboxylic acid (1,2,3,4-tetrahydro-naphthalen-1-yl)-amide]
6 | < 10 µM | CCN1CCN(C(=O)[C@@H](NC(=O)[C@H](C)NC)C(C)C)[C@H](C(=O)NC2CCCc3ccccc32)C1 (stereo partly drawn) [Compound 32, (S)-4-Ethyl-1-[(S)-3-methyl-2-((S)-2-methylamino-propionylamino)-butyryl]-piperazine-2-carboxylic acid (1,2,3,4-tetrahydro-naphthalen-1-yl)-amide]
7 | < 10 µM | CN[C@@H](C)C(=O)N[C@H](C(=O)N1CCN(CC2CC2)C[C@H]1C(=O)NC1CCCc2ccccc21)C(C)C (stereo partly drawn) [Compound 36, (S)-4-Cyclopropylmethyl-1-[(S)-3-methyl-2-((S)-2-methylamino-propionylamino)-butyryl]-piperazine-2-carboxylic acid (1,2,3,4-tetrahydro-naphthalen-1-yl)-amide]
8 | < 10 µM | CN[C@@H](C)C(=O)N[C@H](C(=O)N1CCN(C(=O)NC(C)C)C[C@H]1C(=O)NC1CCCc2ccccc21)C(C)C (stereo partly drawn) [Compound 48, (S)-4-[(S)-3-Methyl-2-((S)-2-methylamino-propionylamino)-butyryl]-piperazine-1,3-dicarboxylic acid 1-isopropylamide 3-[(1,2,3,4-tetrahydro-naphthalen-1-yl)-amide]]
9 | < 10 µM | CN[C@@H](C)C(=O)N[C@H](C(=O)N1CCN(Cc2cccnc2)C[C@H]1C(=O)NC1CCCc2ccccc21)C(C)C (stereo partly drawn) [Compound 3, (S)-1-[(S)-3-Methyl-2-((S)-2-methylamino-propionylamino)-butyryl]-4-pyridin-3-ylmethyl-piperazine-2-carboxylic acid (1,2,3,4-tetrahydro-naphthalen-1-yl)-amide]
10 | < 10 µM | CN[C@@H](C)C(=O)N[C@H](C(=O)N1CCN(C(=O)OCC(C)C)C[C@H]1C(=O)NC1CCCc2ccccc21)C(C)C (stereo partly drawn) [Compound 31, (S)-4-[(S)-3-Methyl-2-((S)-2-methylamino-propionylamino)-butyryl]-3-(1,2,3,4-tetrahydro-naphthalen-1-ylcarbamoyl)-piperazine-1-carboxylic acid isobutyl ester]
11 | < 10 µM | CN[C@@H](C)C(=O)N[C@H](C(=O)N1CCN(CC(C)C)C[C@H]1C(=O)NC1CCCc2ccccc21)C(C)C (stereo partly drawn) [Compound 8, (S)-4-Isobutyl-1-[(S)-3-methyl-2-((S)-2-methylamino-propionylamino)-butyryl]-piperazine-2-carboxylic acid (1,2,3,4-tetrahydro-naphthalen-1-yl)-amide]
12 | < 10 µM | CN[C@@H](C)C(=O)N[C@H](C(=O)N1CCN(CCC(C)(C)C)C[C@H]1C(=O)NC1CCCc2ccccc21)C(C)C (stereo partly drawn) [Compound 21, (S)-4-(3,3-Dimethyl-butyl)-1-[(S)-3-methyl-2-((S)-2-methylamino-propionylamino)-butyryl]-piperazine-2-carboxylic acid (1,2,3,4-tetrahydro-naphthalen-1-yl)-amide]
13 | < 10 µM | CN[C@@H](C)C(=O)N[C@H](C(=O)N1CCN(Cc2ccc(C)cc2)C[C@H]1C(=O)NC1CCCc2ccccc21)C(C)C (stereo partly drawn) [Compound 51, (S)-4-(4-Methyl-benzyl)-1-[(S)-3-methyl-2-((S)-2-methylamino-propionylamino)-butyryl]-piperazine-2-carboxylic acid (1,2,3,4-tetrahydro-naphthalen-1-yl)-amide]
14 | < 10 µM | CN[C@@H](C)C(=O)N[C@H](C(=O)N1CCNC[C@H]1C(=O)NC1CCCc2ccccc21)C(C)C (stereo partly drawn) [Compound 56, (S)-1-[(S)-3-Methyl-2-((S)-2-methylamino-propionylamino)-butyryl]-piperazine-2-carboxylic acid (1,2,3,4-tetrahydro-naphthalen-1-yl)-amide]
15 | < 10 µM | CN[C@@H](C)C(=O)N[C@H](C(=O)N1CCN(C(=O)c2ccc(F)cc2)C[C@H]1C(=O)NC1CCCc2ccccc21)C(C)C (stereo partly drawn) [Compound 17, (S)-4-(4-Fluoro-benzoyl)-1-[(S)-3-methyl-2-((S)-2-methylamino-propionylamino)-butyryl]-piperazine-2-carboxylic acid (1,2,3,4-tetrahydro-naphthalen-1-yl)-amide]

Same assay, conditions: Series B compounds, Table 3; read-out: XIXP IC50

Row | Structure (SMILES) | IC50
16 | CN[C@@H](C)C(=O)N[C@H](C(=O)N1CCN(Cc2ccccc2)C[C@H]1C(=O)NCCc1ccccc1F)C(C)C [Compound 67, (S)-4-Benzyl-1-[(S)-3-methyl-2-((S)-2-methylamino-propionylamino)-butyryl]-piperazine-2-carboxylic acid [2-(2-fluoro-phenyl)-ethyl]-amide] | < 10 µM
17 | CN[C@@H](C)C(=O)N[C@H](C(=O)N1CCN(Cc2ccccc2)C[C@H]1C(=O)NCCc1cccnc1)C(C)C [Compound 66, (S)-4-Benzyl-1-[(S)-3-methyl-2-((S)-2-methylamino-propionylamino)-butyryl]-piperazine-2-carboxylic acid (2-pyridin-3-yl-ethyl)-amide] | > 10 µM
18 | CN[C@@H](C)C(=O)N[C@H](C(=O)N1CCN(Cc2ccccc2)C[C@H]1C(=O)N1CCc2ccccc2C1)C(C)C [Compound 86, (S)-N-{(S)-1-[(S)-4-Benzyl-2-(3,4-dihydro-1H-isoquinoline-2-carbonyl)-piperazine-1-carbonyl]-2-methyl-propyl}-2-methylamino-propionamide] | < 10 µM
19 | CN[C@@H](C)C(=O)N[C@H](C(=O)N1CCN(Cc2ccccc2)C[C@H]1C(=O)N[C@H](C)c1ccccc1)C(C)C [Compound 87, (S)-4-Benzyl-1-[(S)-3-methyl-2-((S)-2-methylamino-propionylamino)-butyryl]-piperazine-2-carboxylic acid ((R)-1-phenyl-ethyl)-amide] | < 10 µM
20 | CN[C@@H](C)C(=O)N[C@H](C(=O)N1CCN(Cc2ccccc2)C[C@H]1C(=O)NCC1CCCCC1)C(C)C [Compound 79, (S)-4-Benzyl-1-[(S)-3-methyl-2-((S)-2-methylamino-propionylamino)-butyryl]-piperazine-2-carboxylic acid cyclohexylmethyl-amide] | < 10 µM
21 | CN[C@@H](C)C(=O)N[C@H](C(=O)N1CCN(Cc2ccccc2)C[C@H]1C(=O)NCc1nccs1)C(C)C [Compound 73, (S)-4-Benzyl-1-[(S)-3-methyl-2-((S)-2-methylamino-propionylamino)-butyryl]-piperazine-2-carboxylic acid (thiazol-2-ylmethyl)-amide] | > 10 µM
22 | CN[C@@H](C)C(=O)N[C@H](C(=O)N1CCN(Cc2ccccc2)C[C@H]1C(=O)NCCC(C)C)C(C)C [Compound 83, (S)-4-Benzyl-1-[(S)-3-methyl-2-((S)-2-methylamino-propionylamino)-butyryl]-piperazine-2-carboxylic acid (3-methyl-butyl)-amide] | > 10 µM

Results, then the compound that gave them:

Row | IC50 | Structure (SMILES)
23 | < 10 µM | CN[C@@H](C)C(=O)N[C@H](C(=O)N1CCN(Cc2ccccc2)C[C@H]1C(=O)NC1CCc2ccccc2C1)C(C)C (stereo partly drawn) [Compound 68, (S)-4-Benzyl-1-[(S)-3-methyl-2-((S)-2-methylamino-propionylamino)-butyryl]-piperazine-2-carboxylic acid (1,2,3,4-tetrahydro-naphthalen-2-yl)-amide]
24 | < 10 µM | CN[C@@H](C)C(=O)N[C@H](C(=O)N1CCN(Cc2ccccc2)C[C@H]1C(=O)NC1CCc2ccccc21)C(C)C (stereo partly drawn) [Compound 62, (S)-4-Benzyl-1-[(S)-3-methyl-2-((S)-2-methylamino-propionylamino)-butyryi]-piperazine-2-carboxylic acid indan-1-ylamide]
